Experimental data from ChEMBL document CHEMBL3885881, “DrugMatrix”.

Species: Rattus norvegicus
Experiment: DrugMatrix - Regimen: Daily Repeat
Assay type: toxicity, organism-based, Sprague-Dawley
Design: regimen Daily Repeat, gender Male, age 6-8 weeks
Details: in vivo, po, route oral GAVAGE, vehicle .5 % CMC; for ABSOLUTE BASOPHIL / ABSOLUTE EOSINOPHIL / ABSOLUTE LYMPHOCYTE / ABSOLUTE MONOCYTE / ABSOLUTE SEGMENTED NEUTROPHIL / BASOPHIL / EOSINOPHIL / ERYTHROCYTE COUNT / HEMATOCRIT / HEMOGLOBIN / LEUKOCYTE COUNT / LYMPHOCYTE / MEAN CORPUSCULAR HEMOGLOBIN / MEAN CORPUSCULAR HEMOGLOBIN CONCENTRATION / MEAN CORPUSCULAR VOLUME / MONOCYTE / NEUTROPHIL / NUCLEATED RED BLOOD CELLS / PLATELET COUNT: tissue Blood; for ALANINE AMINOTRANSFERASE / ALBUMIN / ALKALINE PHOSPHATASE / ASPARTATE AMINOTRANSFERASE / BLOOD UREA NITROGEN / CARBON DIOXIDE / CHLORIDE / CHOLESTEROL / CREATINE PHOSPHOKINASE / CREATININE / LACTATE DEHYDROGENASE / LIPASE / PHOSPHORUS / SODIUM / TOTAL BILIRUBIN / TOTAL PROTEIN / URIC ACID: tissue Plasma
[1] = 29 mg/kg, 72 h, dose level Low, time 3 day
[2] = 29 mg/kg, 120 h, dose level Low, time 5 day
[3] = 1169 mg/kg, 72 h, dose level High, time 3 day
[4] = 1169 mg/kg, 120 h, dose level High, time 5 day

SMILES: Nc1nc(O)c2ncn(COC(CO)CO)c2n1 [GANCICLOVIR]
- ABSOLUTE BASOPHIL [1]: 0 CELLS/uL
- ABSOLUTE EOSINOPHIL [1]: 152 CELLS/uL
- ABSOLUTE LYMPHOCYTE [1]: 12965 CELLS/uL
- ABSOLUTE MONOCYTE [1]: 505.67 CELLS/uL
- ABSOLUTE SEGMENTED NEUTROPHIL [1]: 1544 CELLS/uL
- BASOPHIL [1]: 0%
- EOSINOPHIL [1]: 1%
- ERYTHROCYTE COUNT [1]: 5.64 x10E6/uL
- HEMATOCRIT [1]: 35.17%
- HEMOGLOBIN [1]: 13.17 G/DL
- LEUKOCYTE COUNT [1]: 15.17 x10E3/uL
- LYMPHOCYTE [1]: 85.67%
- MEAN CORPUSCULAR HEMOGLOBIN [1]: 23.37 pg
- MEAN CORPUSCULAR HEMOGLOBIN CONCENTRATION [1]: 37.47 G/DL
- MEAN CORPUSCULAR VOLUME [1]: 62.37 fL
- MONOCYTE [1]: 3.33%
- NEUTROPHIL [1]: 10%
- NUCLEATED RED BLOOD CELLS [1]: 0 /100WBC
- PLATELET COUNT [1]: 1360 x10E3/uL
- ALANINE AMINOTRANSFERASE [1]: 48 u/L
- ALBUMIN [1]: 4.17 G/DL
- ALKALINE PHOSPHATASE [1]: 319.67 u/L
- ASPARTATE AMINOTRANSFERASE [1]: 96 u/L
- BLOOD UREA NITROGEN [1]: 18 mg/dL
- CARBON DIOXIDE [1]: 24 mmol/L
- CHLORIDE [1]: 103 MEQ/L
- CHOLESTEROL [1]: 67.67 mg/dL
- CREATINE PHOSPHOKINASE [1]: 635.33 u/L
- CREATININE [1]: 0.21 mg/dL
- LACTATE DEHYDROGENASE [1]: 646.33 u/L
- LIPASE [1]: 8.67 u/L
- PHOSPHORUS [1]: 14.2 mg/dL
- SODIUM [1]: 145.5 MEQ/L
- TOTAL BILIRUBIN [1]: 0.2 mg/dL
- TOTAL PROTEIN [1]: 5.9 G/DL
- URIC ACID [1]: 2.23 mg/dL
- ABSOLUTE BASOPHIL [2]: 0 CELLS/uL
- ABSOLUTE EOSINOPHIL [2]: 86.67 CELLS/uL
- ABSOLUTE LYMPHOCYTE [2]: 11979.33 CELLS/uL
- ABSOLUTE MONOCYTE [2]: 137.33 CELLS/uL
- ABSOLUTE SEGMENTED NEUTROPHIL [2]: 1530 CELLS/uL
- BASOPHIL [2]: 0%
- EOSINOPHIL [2]: 0.67%
- ERYTHROCYTE COUNT [2]: 5.69 x10E6/uL
- HEMATOCRIT [2]: 35.37%
- HEMOGLOBIN [2]: 13.23 G/DL
- LEUKOCYTE COUNT [2]: 13.73 x10E3/uL
- LYMPHOCYTE [2]: 87%
- MEAN CORPUSCULAR HEMOGLOBIN [2]: 23.27 pg
- MEAN CORPUSCULAR HEMOGLOBIN CONCENTRATION [2]: 37.47 G/DL
- MEAN CORPUSCULAR VOLUME [2]: 62.13 fL
- MONOCYTE [2]: 1%
- NEUTROPHIL [2]: 11.33%
- NUCLEATED RED BLOOD CELLS [2]: 0 /100WBC
- PLATELET COUNT [2]: 1168 x10E3/uL
- ALANINE AMINOTRANSFERASE [2]: 47.67 u/L
- ALBUMIN [2]: 4.2 G/DL
- ALKALINE PHOSPHATASE [2]: 323 u/L
- ASPARTATE AMINOTRANSFERASE [2]: 91.67 u/L
- BLOOD UREA NITROGEN [2]: 19.33 mg/dL
- CARBON DIOXIDE [2]: 25.33 mmol/L
- CHLORIDE [2]: 106.33 MEQ/L
- CHOLESTEROL [2]: 74.67 mg/dL
- CREATINE PHOSPHOKINASE [2]: 428.33 u/L
- CREATININE [2]: 0.15 mg/dL
- LACTATE DEHYDROGENASE [2]: 720 u/L
- LIPASE [2]: 8.67 u/L
- PHOSPHORUS [2]: 11.4 mg/dL
- SODIUM [2]: 145.9 MEQ/L
- TOTAL BILIRUBIN [2]: 0.13 mg/dL
- TOTAL PROTEIN [2]: 5.77 G/DL
- URIC ACID [2]: 0.83 mg/dL
- ABSOLUTE BASOPHIL [3]: 0 CELLS/uL
- ABSOLUTE EOSINOPHIL [3]: 180.33 CELLS/uL
- ABSOLUTE LYMPHOCYTE [3]: 12632.33 CELLS/uL
- ABSOLUTE MONOCYTE [3]: 432 CELLS/uL
- ABSOLUTE SEGMENTED NEUTROPHIL [3]: 1155.33 CELLS/uL
- BASOPHIL [3]: 0%
- EOSINOPHIL [3]: 1.67%
- ERYTHROCYTE COUNT [3]: 5.52 x10E6/uL
- HEMATOCRIT [3]: 33.9%
- HEMOGLOBIN [3]: 12.9 G/DL
- LEUKOCYTE COUNT [3]: 14.4 x10E3/uL
- LYMPHOCYTE [3]: 87%
- MEAN CORPUSCULAR HEMOGLOBIN [3]: 23.43 pg
- MEAN CORPUSCULAR HEMOGLOBIN CONCENTRATION [3]: 38.07 G/DL
- MEAN CORPUSCULAR VOLUME [3]: 61.57 fL
- MONOCYTE [3]: 3%
- NEUTROPHIL [3]: 8.33%
- NUCLEATED RED BLOOD CELLS [3]: 0.33 /100WBC
- PLATELET COUNT [3]: 1439 x10E3/uL
- ALANINE AMINOTRANSFERASE [3]: 45.33 u/L
- ALBUMIN [3]: 4.3 G/DL
- ALKALINE PHOSPHATASE [3]: 313.33 u/L
- ASPARTATE AMINOTRANSFERASE [3]: 76 u/L
- BLOOD UREA NITROGEN [3]: 19 mg/dL
- CARBON DIOXIDE [3]: 27.33 mmol/L
- CHLORIDE [3]: 103.67 MEQ/L
- CHOLESTEROL [3]: 79.67 mg/dL
- CREATINE PHOSPHOKINASE [3]: 222.33 u/L
- CREATININE [3]: 0.23 mg/dL
- LACTATE DEHYDROGENASE [3]: 239 u/L
- LIPASE [3]: 9 u/L
- PHOSPHORUS [3]: 12.3 mg/dL
- SODIUM [3]: 145.57 MEQ/L
- TOTAL BILIRUBIN [3]: 0.2 mg/dL
- TOTAL PROTEIN [3]: 5.93 G/DL
- URIC ACID [3]: 1.27 mg/dL
- ABSOLUTE BASOPHIL [4]: 0 CELLS/uL
- ABSOLUTE EOSINOPHIL [4]: 164.33 CELLS/uL
- ABSOLUTE LYMPHOCYTE [4]: 13318 CELLS/uL
- ABSOLUTE MONOCYTE [4]: 365.67 CELLS/uL
- ABSOLUTE SEGMENTED NEUTROPHIL [4]: 1652 CELLS/uL
- BASOPHIL [4]: 0%
- EOSINOPHIL [4]: 1%
- ERYTHROCYTE COUNT [4]: 5.49 x10E6/uL
- HEMATOCRIT [4]: 34.33%
- HEMOGLOBIN [4]: 13.13 G/DL
- LEUKOCYTE COUNT [4]: 15.5 x10E3/uL
- LYMPHOCYTE [4]: 86%
- MEAN CORPUSCULAR HEMOGLOBIN [4]: 23.93 pg
- MEAN CORPUSCULAR HEMOGLOBIN CONCENTRATION [4]: 38.27 G/DL
- MEAN CORPUSCULAR VOLUME [4]: 62.6 fL
- MONOCYTE [4]: 2.33%
- NEUTROPHIL [4]: 10.67%
- NUCLEATED RED BLOOD CELLS [4]: 0.33 /100WBC
- PLATELET COUNT [4]: 1216.67 x10E3/uL
- ALANINE AMINOTRANSFERASE [4]: 42.33 u/L
- ALBUMIN [4]: 4.2 G/DL
- ALKALINE PHOSPHATASE [4]: 345.33 u/L
- ASPARTATE AMINOTRANSFERASE [4]: 78.67 u/L
- BLOOD UREA NITROGEN [4]: 19.67 mg/dL
- CARBON DIOXIDE [4]: 29.33 mmol/L
- CHLORIDE [4]: 102.33 MEQ/L
- CHOLESTEROL [4]: 65.33 mg/dL
- CREATINE PHOSPHOKINASE [4]: 220 u/L
- CREATININE [4]: 0.18 mg/dL
- LACTATE DEHYDROGENASE [4]: 181 u/L
- LIPASE [4]: 8.67 u/L
- PHOSPHORUS [4]: 11.73 mg/dL
- SODIUM [4]: 145.77 MEQ/L
- TOTAL BILIRUBIN [4]: 0.13 mg/dL
- TOTAL PROTEIN [4]: 5.9 G/DL
- URIC ACID [4]: 1.43 mg/dL
